Experimental data: ChEMBL document CHEMBL4819116, “Design, synthesis, and biological evaluation of stapled ascaphin-8 peptides” (Bioorg Med Chem, 2021)
Where a SMILES comes first, the peptide text is derived from it. Bridges are numbered along the chain shown (N, C = ends). [ ]: non-standard residue; d: D form. S8 = C=CCCCCCC[C@](C)(N)C(=O)O; S5 = C=CCCC[C@](C)(N)C(=O)O

How the values were obtained:
[1] = Helicity of the compound in TFE aqueous solution by CD spectroscopy; assay type: physicochemical; details: buffer
[2] = system: A549; assay: Cytotoxicity against human A549 cells assessed as reduction in cell viability measured after 96 hrs b y CCK-8 assay; assay type: functional, cell-based; details: A549, 96 h
[3] = system: LNCaP C4-2B; assay: Cytotoxicity against human LNCaP C4-2B cells assessed as reduction in cell viability measured after 96 hrs b y CCK-8 assay; assay type: functional, cell-based
[4] = system: HEK-293T; assay: Cytotoxicity against human HEK293T cells assessed as reduction in cell viability measured after 96 hrs b y CCK-8 assay; assay type: cell-based
[5] = Hemolytic activity in rabbit red blood cells assessed as hemoglobin release; assay type: ADME, cell-based, Oryctolagus cuniculus, Erythrocyte
[6] = biological target: T1, trypsin (Homo sapiens, UniProt P07477+P07478+P35030); assay: Stability of the compound assessed as trypsin (unknown origin)-mediated degradation by measuring half life using pH 7.4 PBS buffer by HPLC analysis; assay type: ADME, protein assay; details: trypsin in PBS buffer
[7] = system: A549; assay: Inhibition of colony formation in human A549 cells measured after 14 days by crystal violet staining based light microscopy; assay type: functional, cell-based; details: dose 0-4 µM, time 14.0 day
[8] = system: A549; assay: Antimigratory activity against human A549 cells assessed as inhibition of cell migration measured for 24 hrs by crystal violet staining - light microscopy based transwell migration assay; assay type: functional; details: dose 0-4 µM
[9] = biological target: T1, trypsin; assay: Stability of the compound assessed as trypsin (unknown origin)-mediated degradation using pH 7.4 PBS buffer measured for 60 mins by HPLC analysis; assay type: ADME, protein assay; details: trypsin in PBS buffer, read-out: Drug degradation

Compound | Activity [1] [%] | IC50 [2] [µM] | IC50 [3] [µM] | IC50 [4] [µM] | HC50 [5] [µM] | half-life [6] [min] | inhibition [7] | Activity [8] | metabolised at 1 h [9] [%]
CC(C)C[C@H](NC(=O)[C@H](CC(=O)O)NC(=O)[C@H](CCCCN)NC(=O)[C@H](Cc1ccccc1)NC(=O)CN)C(=O)N[C@@H](CC(C)C)C(=O)N[C@@H](CCCCN)C(=O)N[C@@]1(C)CCC/C=C\CCC[C@@](C)(C(=O)N[C@@H](CC(C)C)C(=O)N[C@H](C(=O)N[C@@H](CCCCN)C(=O)N[C@H](C(=O)N[C@H](C(=O)N[C@@H](CC(C)C)C(=O)N[C@@H](Cc2ccccc2)C(N)=O)C(C)C)[C@@H](C)O)C(C)C)NC(=O)[C@H](CCCCN)NC(=O)[C@H](C)NC(=O)[C@H](C)NC1=O (H-GFKDLLK[S5]AAK[S5]LVKTVLF-NH2; staple (Z) 8-12) | 48 | 2.57 | 7.88 | 19.7 | 40.2 |  |  |  | 
CC(C)C[C@H](NC(=O)[C@H](C)NC(=O)[C@H](CCCCN)NC(=O)[C@H](C)NC(=O)[C@H](C)NC(=O)[C@]1(C)CCC/C=C\CCC[C@](C)(NC(=O)[C@H](CCCCN)NC(=O)[C@H](Cc2ccccc2)NC(=O)CN)C(=O)N[C@@H](CC(C)C)C(=O)N[C@@H](CC(C)C)C(=O)N[C@@H](CCCCN)C(=O)N1)C(=O)N[C@H](C(=O)N[C@@H](CCCCN)C(=O)N[C@H](C(=O)N[C@H](C(=O)N[C@@H](CC(C)C)C(=O)N[C@@H](Cc1ccccc1)C(N)=O)C(C)C)[C@@H](C)O)C(C)C (H-GFK[S5]LLK[S5]AAKALVKTVLF-NH2; staple (Z) 4-8) | 42 | 4.1 | 11.1 | 33.9 | 79.9 |  |  |  | 
CC(C)C[C@H](NC(=O)[C@H](CC(C)C)NC(=O)[C@H](CC(=O)O)NC(=O)[C@H](CCCCN)NC(=O)[C@H](Cc1ccccc1)NC(=O)CN)C(=O)N[C@@H](CCCCN)C(=O)NCC(=O)N[C@@H](C)C(=O)N[C@@H](C)C(=O)N[C@@H](CCCCN)C(=O)N[C@@]1(C)CCC/C=C\CCC[C@@](C)(C(=O)N[C@H](C(=O)N[C@@H](CC(C)C)C(=O)N[C@@H](Cc2ccccc2)C(N)=O)C(C)C)NC(=O)[C@H](CCCCN)NC(=O)[C@H](C(C)C)NC(=O)[C@H](CC(C)C)NC1=O (H-GFKDLLKGAAK[S5]LVK[S5]VLF-NH2; staple (Z) 12-16) | 51 | 2.39 | 7.17 | 16.4 | 40.6 | 36 | Dose-Dependent Effect | Dose-Dependent Effect | 
CC(C)C[C@@H]1NC(=O)[C@H](C)NC(=O)[C@H](CCCCN)NC(=O)[C@H](C)NC(=O)[C@@](C)(NC(=O)CNC(=O)[C@H](CCCCN)NC(=O)[C@H](CC(C)C)NC(=O)[C@H](CC(C)C)NC(=O)[C@H](CC(=O)O)NC(=O)[C@H](CCCCN)NC(=O)[C@H](Cc2ccccc2)NC(=O)CN)CCCCCC/C=C/CCC[C@@](C)(C(=O)N[C@H](C(=O)N[C@@H](CC(C)C)C(=O)N[C@@H](Cc2ccccc2)C(N)=O)C(C)C)NC(=O)[C@H](CCCCN)NC(=O)[C@H](C(C)C)NC1=O (H-GFKDLLKG[S8]AKALVK[S5]VLF-NH2; staple (E) 9-16) | 80 | 11.7 | 17.3 | 44.3 | 90.5 |  |  |  | 
H-GFKDLLKGAAKALVKTVLF-NH2 [Ascaphin-8] | 47 | 33.8 | 42.9 | 53.7 | > 100 | 14 |  |  | 100
